Measurements taken from paper PMC12290687, “Phenotypic Screening of the MMV Global Health Priority Box Identifies Selective Compounds with Anti-Toxoplasma gondii Activity” (ACS Omega, 2025).
Read-outs that look alike come from different tables or passages of the source.

What was measured:
[1] = Cytotoxicity assay (resazurin reduction) in uninfected HFFs; assay type: cell-based, human; conditions: human
Method: (§1) Toxoplasma gondii RH-2F1 tachyzoites, which express β-galactosidase, were maintained in human foreskin fibroblasts (HFFs). HFFs were cultured in Dulbecco’s Modified Eagle Medium (DMEM) supplemented with 10% fetal bovine serum (FBS), 2 mM L-glutamine, and 40 μg/mL gentamicin (referred to as D10) and incubated at 37 °C in a 5% CO2 humidified atmosphere. For infection assays, confluent monolayers were maintained in DMEM with 2% FBS (D2) prior to parasite inoculation.
(§2) For in vitro assays in 96-well plates, HFFs were seeded at 5 × 10^3 cells/well in the D10 medium and incubated for 12–16 h to allow adherence. […] For antiparasitic assays, HFFs were infected with RH-2F1 tachyzoites at a multiplicity of infection (MOI) of 1:1 for 3 h.
(§3) The resazurin assay was used to evaluate the compound cytotoxicity in uninfected HFFs. Following 72 h treatment, 100 μM resazurin was added to each well and incubated for 4 h at 37 °C. Fluorescence was measured using excitation/emission wavelengths of 565/590 nm. Controls included untreated cells (viability control), 1% DMSO (solvent control), 50 μM pyrimethamine (reference drug), and blank wells (no cells). Each condition was tested in duplicate in three independent experiments.

[2] = tested on: T. gondii intracellular tachyzoites; assay: microbe, parasite or virus in culture; assay type: cell-based, Toxoplasma gondii RH-2F1; conditions: half effective concentration against T. gondii intracellular tachyzoites in HFF, MOI 1:1, 72 h, duplicates in three independent experiments
Method: as §1, §2
Parasite proliferation was assessed by quantifying β-galactosidase activity, as previously described. Briefly, after the 72 h incubation, cells were lysed in 100 μL of lysis buffer (100 mM HEPES pH 7.5, 1 mM MgSO4, 0.1% Triton X-100, 5 mM DTT) for 15 min at room temperature. […] Following a 30 min incubation at 37 °C, absorbance was measured at 570 nm using a Varioskan LUX microplate reader (Thermo Scientific). Each assay included viability controls (untreated infected cells), solvent controls (1% DMSO), a positive control (1 μM pyrimethamine), and experimental blanks (no cells). All conditions were tested in two biological replicates in three independent experiments.
Compounds from the GHPB library were screened at a final concentration of 1 μM in infected HFF monolayers, using the β-galactosidase assay as a readout for parasite viability after 72 h.

H. contortus = tested on: H. contortus; set-up: method as in Shanley et al. (2024); conditions: ref Shanley et al. (2024); cited from earlier work
VERO/RAW cells = tested on: VERO/RAW cells; set-up: method as in Tali et al.; conditions: ref Tali et al.; cited from earlier work
[3] = tested on: P. falciparum ring stages; conditions: literature report, reference mark not given; cited from earlier work
HepG2 cell line = tested on: HepG2 cell line; set-up: method as in Timoumi et al.; conditions: ref Timoumi et al.; cited from earlier work
HEK293 cell line = tested on: HEK293 cell line; set-up: method as in Timoumi et al.; conditions: ref Timoumi et al.; cited from earlier work
[4] = set-up: method as in Timoumi et al.; conditions: doses of 350–500 mg/kg; ref Timoumi et al.; cited from earlier work
[5] = tested on: human foreskin fibroblasts (HFF); assay: Cytotoxicity assay (resazurin reduction) in uninfected HFFs; assay type: cell-based; conditions: half cytotoxic concentration against HFF, 72 h, highest concentration tested 50 μM
Method: as §1, §2, §3

Plasmodium liver stages = conditions: literature report, reference mark not given; cited from earlier work
[6] = uninfected human foreskin fibroblasts (HFF), half cytotoxic concentration against HFF, 72 h, highest concentration tested 50 μM, read-out: CC50 (μM) ± SD

SMILES | CC50 at 72 h [1, 6] [µM] | EC50 ([2]; Toxoplasma gondii) [µM] | CC50 [5] [µM] | EC50 [2] [µM] | other results
CCc1nc(N)nc(N)c1-c1ccc(Cl)cc1 [Pyrimethamine, reference compound] | > 50 | 0.38 ± 0.03 |  |  | 
COc1cc(/C=N/c2c(SC(F)(F)F)c(C#N)nn2-c2c(Cl)cc(C(F)(F)F)cc2Cl)ccc1O [MMV1794214, Vaniliprole] |  | 0.07 ± 0.04 |  |  | CC50 at 72 h [1]: > 50 µM; effect on H. contortus (H. contortus): impairs motility and larval development
CO/C=C(/C(=O)OC)c1ccccc1COc1c(C)c(-c2ccc(C)cc2C)nn1C [MMV1794211] |  | 0.01 ± 0.01 |  |  | CC50 (VERO/RAW cells): > 10 µM
CCOc1ccccc1NC(=O)Cn1c(=O)n(Cc2ccccc2)c(=O)c2c(C)c(C(=O)N(C)C)sc21 [MMV006430] | > 50 | 0.3 ± 0.03 |  |  | time to activity against P. falciparum ring stages (fast-acting) [3]: under 65 h
O=C(NC(=O)c1ccccc1Cl)Nc1ccc(OC(F)(F)F)cc1 [MMV689404, Triflumuron] |  | 0.49 ± 0.03 |  |  | CC50 at 72 h ([1]; half cytotoxic concentration against HFF, 72 h, highest concentration tested 50 μM, read-out: CC50 (μM) ± SD): > 50 µM; CC50 (HepG2 cell line): 120 µM; CC50 (HEK293 cell line): 200 µM; in vivo toxicity finding [4]: hepatotoxicity and oxidative stress
O=C(Nc1ncccc1O)c1ccc(N2CCOCC2)nc1 [MMV1103183] |  |  | > 50 | 0.72 ± 0.39 | 
O=C(Nc1ccc(Cl)c(C(F)(F)F)c1)Nc1ccc(Cl)c(C(F)(F)F)c1 [MMV027339] |  |  | 5.51 ± 0.86 | 0.5 ± 0.02 | 
CS(=O)(=O)c1ccc(-c2cnn3c2NC(c2cccc(S(=O)(=O)C4CC4)c2)CC3)cc1 (stereo not shown) [MMV674132] | > 50 | 0.19 ± 0.04 |  |  | time to activity against P. falciparum ring stages (fast-acting) [3]: under 65 h; activity against Plasmodium liver stages (Plasmodium liver stages): activity
O=C(Nc1ncccc1O)c1ccc(S(=O)(=O)NCCc2cccs2)cc1 [MMV1435700] |  |  | 20 ± 3.8 | 0.34 ± 0.08 | 
Cn1ccnc1SCC(=O)Nc1ccc(C(=O)Nc2ncccc2O)cc1 [MMV1267536] | 29.2 ± 2.79 | 0.19 ± 0.03 |  |  | activity against Plasmodium liver stages (Plasmodium liver stages): activity
O=C(Nc1ncccc1O)c1ccc(Cn2cccn2)cc1 [MMV1266067] |  |  | > 50 | 0.73 ± 0.13 | 
CN(C)C1CC(NC(=O)c2ccc(Nc3nccc(-c4ccc(Cl)c(C(F)(F)F)c4)n3)cc2)C1 (stereo not shown) [MMV884814] |  |  | 4.1 ± 1.18 | 0.76 ± 0.06 | 
Cn1c(O)c(C(=O)Nc2ccc(Cl)c(Cl)c2)c(=O)n(C)c1=O [MMV1634081] |  |  | 30.8 ± 4.55 | 0.52 ± 0.01 | 
